# Results as given in patent US11053213B2, “Pharmaceutical compounds” (ALMAC DISCOVERY LIMITED, priority 2016, dated 2021).
# Target: USP19 (Homo sapiens (Human), UniProt O94966)
# Assay: USP19 activity assay (fluorescence polarisation, Ubiquitin-Lys-TAMRA substrate)
# Type: biochemical
# Conditions: full-length USP19 2.5 nM, 30 min pre-incubation, Ub substrate 500 nM; average of at least two duplicate experiments
# USP19, sequence (O94966 whole entry): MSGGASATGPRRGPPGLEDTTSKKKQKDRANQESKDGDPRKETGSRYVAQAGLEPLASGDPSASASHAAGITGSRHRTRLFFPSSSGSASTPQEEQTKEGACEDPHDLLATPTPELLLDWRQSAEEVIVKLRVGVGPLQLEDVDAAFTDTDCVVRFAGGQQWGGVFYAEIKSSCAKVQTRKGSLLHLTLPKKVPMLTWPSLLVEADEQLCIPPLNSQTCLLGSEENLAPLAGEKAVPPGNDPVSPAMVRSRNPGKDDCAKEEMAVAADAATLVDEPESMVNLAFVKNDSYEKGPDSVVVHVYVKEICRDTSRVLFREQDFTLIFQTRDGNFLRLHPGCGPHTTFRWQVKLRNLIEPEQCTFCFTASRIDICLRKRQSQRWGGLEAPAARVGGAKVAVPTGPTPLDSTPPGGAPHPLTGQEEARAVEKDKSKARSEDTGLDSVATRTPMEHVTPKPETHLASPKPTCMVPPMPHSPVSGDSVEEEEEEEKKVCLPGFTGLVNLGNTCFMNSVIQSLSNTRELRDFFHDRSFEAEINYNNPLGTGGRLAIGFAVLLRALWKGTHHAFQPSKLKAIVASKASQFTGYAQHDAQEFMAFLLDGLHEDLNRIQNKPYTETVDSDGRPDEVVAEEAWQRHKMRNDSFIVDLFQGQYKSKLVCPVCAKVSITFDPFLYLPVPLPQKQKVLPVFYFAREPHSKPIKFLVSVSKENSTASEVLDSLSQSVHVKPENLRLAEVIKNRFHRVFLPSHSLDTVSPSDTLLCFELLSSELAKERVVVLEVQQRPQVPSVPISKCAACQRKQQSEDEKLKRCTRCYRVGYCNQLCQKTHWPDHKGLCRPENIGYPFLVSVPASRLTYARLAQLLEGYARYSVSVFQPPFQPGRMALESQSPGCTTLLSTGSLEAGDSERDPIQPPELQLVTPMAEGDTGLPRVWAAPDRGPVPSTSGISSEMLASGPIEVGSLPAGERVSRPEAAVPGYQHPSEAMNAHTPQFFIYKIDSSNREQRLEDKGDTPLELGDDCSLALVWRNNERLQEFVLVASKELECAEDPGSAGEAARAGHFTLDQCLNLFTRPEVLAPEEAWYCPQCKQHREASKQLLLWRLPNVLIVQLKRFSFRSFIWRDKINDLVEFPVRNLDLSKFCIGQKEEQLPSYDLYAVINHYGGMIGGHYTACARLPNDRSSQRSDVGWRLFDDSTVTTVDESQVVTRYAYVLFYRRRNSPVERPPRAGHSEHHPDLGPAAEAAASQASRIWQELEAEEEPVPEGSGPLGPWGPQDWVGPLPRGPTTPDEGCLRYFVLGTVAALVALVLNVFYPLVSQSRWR
row,SMILES,IC50 [µM]
1,"C[C@H](CC(=O)N1CCC(O)(Cn2cc(-c3ccccc3)c(-c3ccccc3)cc2=O)CC1)c1ccccc1 [Example 98, (R)-1-((4-Hydroxy-1-(3-phenylbutanoyl)piperidin-4-yl)methyl)-4,5-diphenylpyridin-2(1H)-one]",5 to 50
2,"C[C@H](CC(=O)N1CCC(O)(Cn2cc(-c3cccnc3)c(-c3ccccc3)cc2=O)CC1)c1ccccc1 [Example 99, (R)-1-((4-Hydroxy-1-(3-phenylbutanoyl)piperidin-4-yl)methyl)-4-phenyl-[3,3′-bipyridin]-6(1H)-one]",5 to 50
3,"C[C@H](CC(=O)N1CCC(O)(Cn2cc(-c3cccc(CN)c3)c(-c3ccccc3)cc2=O)CC1)c1ccccc1 [Example 100, (R)-5-(3-(Aminomethyl)phenyl)-1-((4-hydroxy-1-(3-phenylbutanoyl)piperidin-4-yl)methyl)-4-phenylpyridin-2(1H)-one]",5 to 50
4,"CC(C)N(C)C(=O)c1cn(CC2(O)CCN(C(=O)C[C@@H](C)c3ccccc3)CC2)c(=O)cc1-c1ccccc1 [Example 101, (R)-1-((4-Hydroxy-1-(3-phenylbutanoyl)piperidin-4-yl)methyl)-N-isopropyl-N-methyl-6-oxo-4-phenyl-1,6-dihydropyridine-3-carboxamide]",5 to 50
5,"C[C@H](CC(=O)N1CCC(O)(Cn2cc(-c3cncnc3)c(-c3ccccc3)cc2=O)CC1)c1ccccc1 [Example 103, (R)-1-((4-Hydroxy-1-(3-phenylbutanoyl)piperidin-4-yl)methyl)-4-phenyl-5-(pyrimidin-5-yl)pyridin-2(1H)-one]",5 to 50
6,"C[C@H](CC(=O)N1CCC(O)(Cn2cc(C(=O)NCC3CC3)c(-c3ccccc3)cc2=O)CC1)c1ccccc1 [Example 104, (R)—N-(Cyclopropylmethyl)-1-((4-hydroxy-1-(3-phenylbutanoyl)piperidin-4-yl)methyl)-6-oxo-4-phenyl-1,6-dihydropyridine-3-carboxamide]",5 to 50
7,"C[C@H](CC(=O)N1CCC(O)(Cn2cc(C(=O)N(C)Cc3ccccc3)c(-c3ccccc3)cc2=O)CC1)c1ccccc1 [Example 105, (R)—N-Benzyl-1-((4-hydroxy-1-(3-phenylbutanoyl)piperidin-4-yl)methyl)-N-methyl-6-oxo-4-phenyl-1,6-dihydropyridine-3-carboxamide]",5 to 50
8,"C[C@H](CC(=O)N1CCC(O)(Cn2cc(-c3ccccc3C#N)c(-c3ccccc3)cc2=O)CC1)c1ccccc1 [Example 106, (R)-2-(1-((4-Hydroxy-1-(3-phenylbutanoyl)piperidin-4-yl)methyl)-6-oxo-4-phenyl-1,6-dihydropyridin-3-yl)benzonitrile]",5 to 50
9,"C[C@H](CC(=O)N1CCC(O)(Cn2cc(C(=O)N(C)c3ccccc3)c(-c3ccccc3)cc2=O)CC1)c1ccccc1 [Example 107, (R)-1-((4-Hydroxy-1-(3-phenylbutanoyl)piperidin-4-yl)methyl)-N-methyl-6-oxo-N,4-diphenyl-1,6-dihydropyridine-3-carboxamide]",5 to 50
10,"C[C@H](CC(=O)N1CCC(O)(Cn2cc(-c3cnn(C)c3)c(-c3ccccc3)cc2=O)CC1)c1ccccc1 [Example 109, (R)-1-((4-Hydroxy-1-(3-phenylbutanoyl)piperidin-4-yl)methyl)-5-(1-methyl-1H-pyrazol-4-yl)-4-phenylpyridin-2(1H)-one]",50 to 250
11,"Cc1cn(CC2(O)CCN(C(=O)C[C@@H](C)c3ccccc3)CC2)c(=O)cc1-c1ccccc1 [Example 111, (R)-1-((4-Hydroxy-1-(3-phenylbutanoyl)piperidin-4-yl)methyl)-5-methyl-4-phenylpyridin-2(1H)-one]",50 to 250
12,"Cc1c(-c2cc(=O)n(CC3(O)CCN(C(=O)C[C@@H](C)c4ccccc4)CC3)cn2)cnn1C [Example 112, (R)-6-(1,5-Dimethyl-1H-pyrazol-4-yl)-3-((4-hydroxy-1-(3-phenylbutanoyl)piperidin-4-yl)methyl)pyrimidin-4(3H)-one]",50 to 250
13,"O=C(CCC1CCCCC1)N1C[C@H]2CC[C@@H](C1)C2(O)Cn1cnc(-c2ccccc2F)cc1=O (stereo partly drawn) [Example 113, 3-(((1R,5S)-3-(3-Cyclohexylpropanoyl)-8-hydroxy-3-azabicyclo[3.2.1]octan-8-yl)methyl)-6-(2-fluorophenyl)pyrimidin-4(3H)-one]",50 to 250
14,"C[C@H](CC(=O)N1CCC(O)(Cn2cc(C#N)c(-c3ccccc3)cc2=O)CC1)c1ccccc1 [Example 114, (R)-1-((4-Hydroxy-1-(3-phenylbutanoyl)piperidin-4-yl)methyl)-6-oxo-4-phenyl-1,6-dihydropyridine-3-carbonitrile]",5 to 50
15,"C[C@H](CC(=O)N1CCC(O)(Cn2cc(C(=O)NCCO)c(-c3ccccc3)cc2=O)CC1)c1ccccc1 [Example 115, (R)-1-((4-Hydroxy-1-(3-phenylbutanoyl)piperidin-4-yl)methyl)-N-(2-hydroxyethyl)-6-oxo-4-phenyl-1,6-dihydropyridine-3-carboxamide]",5 to 50
16,"C[C@H](CC1CCCCC1)C(=O)N1CC[C@](O)(Cn2cc(C(=O)N(C)C)c(-c3ccccc3)cc2=O)C(C)(C)C1 [Example 122, 1-(((R)-1-((R)-3-Cyclohexyl-2-methylpropanoyl)-4-hydroxy-3,3-dimethylpiperidin-4-yl)methyl)-N,N-dimethyl-6-oxo-4-phenyl-1,6-dihydropyridine-3-carboxamide]",50 to 250
17,"C[C@H](CC1CCCCC1)C(=O)N1CC[C@](O)(Cn2cc(C(=O)N3CCNCC3)c(-c3ccccc3)cc2=O)C(C)(C)C1 [Example 125, 1-(((R)-1-((R)-3-Cyclohexyl-2-methylpropanoyl)-4-hydroxy-3,3-dimethylpiperidin-4-yl)methyl)-4-phenyl-5-(piperazine-1-carbonyl)pyridin-2(1H)-one]",5 to 50
18,"CC(OC1CCCCC1)C(=O)N1CCC(O)(Cn2cnc(-c3ccccc3F)cc2=O)C(C)(C)C1 (stereo not drawn) [Example 126, 3-((1-(2-(Cyclohexyloxy)propanoyl)-4-hydroxy-3,3-dimethylpiperidin-4-yl)methyl)-6-(2-fluorophenyl)pyrimidin-4(3H)-one]",50 to 250

# More lines, now with the values ahead:
row,IC50 [µM],SMILES
1,5 to 50,"Cc1ccc(-c2cc(=O)n(CC3(O)CCN(C(=O)C[C@@H](C)c4ccccc4)CC3)cc2C(=O)N(C)C(C)C)cc1 [Example 96, (R)-1-((4-Hydroxy-1-(3-phenylbutanoyl)piperidin-4-yl)methyl)-N-isopropyl-N-methyl-6-oxo-4-(p-tolyl)-1,6-dihydropyridine-3-carboxamide]"
2,5 to 50,"CON(C)C(=O)c1cn(CC2(O)CCN(C(=O)C[C@@H](C)c3ccccc3)CC2)c(=O)cc1-c1ccccc1 [Example 97, (R)-1-((4-Hydroxy-1-(3-phenylbutanoyl)piperidin-4-yl)methyl)-N-methoxy-N-methyl-6-oxo-4-phenyl-1,6-dihydropyridine-3-carboxamide]"
3,0.5 to 5,"Cc1cccc(-c2cc(=O)n(CC3(O)CCN(C(=O)C[C@@H](C)c4ccccc4)CC3)cc2C(=O)N(C)C(C)C)c1 [Example 102, (R)-1-((4-Hydroxy-1-(3-phenylbutanoyl)piperidin-4-yl)methyl)-N-isopropyl-N-methyl-6-oxo-4-(m-tolyl)-1,6-dihydropyridine-3-carboxamide]"
4,0.5 to 5,"CC(n1cnc(-c2ccccc2)cc1=O)C1(O)CCN(C(=O)[C@H](C)CC2CCCCC2)CC1 (stereo partly drawn) [Example 108, 3-(1-(1-((R)-3-Cyclohexyl-2-methylpropanoyl)-4-hydroxypiperidin-4-yl)ethyl)-6-phenylpyrimidin-4(3H)-one]"
5,0.5 to 5,"C=CC[C@H](CC1CCCCC1)C(=O)N1CCC(O)(Cn2cnc(-c3ccccc3F)cc2=O)CC1 [Example 110, (R)-3-((1-(2-(Cyclohexylmethyl)pent-4-enoyl)-4-hydroxypiperidin-4-yl)methyl)-6-(2-fluorophenyl)pyrimidin-4(3H)-one]"
6,0.5 to 5,"C[C@H](CC(=O)N1CCC(O)(Cn2cc(C(=O)N3CCC[C@@H]3C)c(-c3ccccc3)cc2=O)CC1)c1ccccc1 [Example 116, 1-((4-Hydroxy-1-((R)-3-phenylbutanoyl)piperidin-4-yl)methyl)-5-((S)-2-methylpyrrolidine-1-carbonyl)-4-phenylpyridin-2(1H)-one]"
7,0.5 to 5,"C[C@H](CC(=O)N1CCC(O)(Cn2cc(C(=O)N3CCC(CO)CC3)c(-c3ccccc3)cc2=O)CC1)c1ccccc1 [Example 117, (R)-1-((4-Hydroxy-1-(3-phenylbutanoyl)piperidin-4-yl)methyl)-5-(4-(hydroxymethyl)piperidine-1-carbonyl)-4-phenylpyridin-2(1H)-one]"
8,0.5 to 5,"CCC(CC1CCCCC1)C(=O)N1CCC(O)(Cn2cnc(-c3ccccc3F)cc2=O)C(C)(C)C1 (stereo not drawn) [Example 118, 3-((1-(2-(Cyclohexylmethyl)butanoyl)-4-hydroxy-3,3-dimethylpiperidin-4-yl)methyl)-6-(2-fluorophenyl)pyrimidin-4(3H)-one]"
9,< 0.5,"C[C@H](CC1CCCCC1)C(=O)N1CCC(O)(Cn2cnc(-c3ccccc3F)cc2=O)C2(CCCC2)C1 (stereo partly drawn) [Example 119, 3-((7-((R)-3-Cyclohexyl-2-methylpropanoyl)-10-hydroxy-7-azaspiro[4.5]decan-10-yl)methyl)-6-(2-fluorophenyl)pyrimidin-4(3H)-one]"
10,< 0.5,"CC(C)N(C)C(=O)c1cn(C[C@]2(O)CCN(C(=O)[C@H](C)CC3CCCCC3)CC2(C)C)c(=O)cc1-c1ccccc1 [Example 120, 1-(((S)-1-((R)-3-Cyclohexyl-2-methylpropanoyl)-4-hydroxy-3,3-dimethylpiperidin-4-yl)methyl)-N-isopropyl-N-methyl-6-oxo-4-phenyl-1,6-dihydropyridine-3-carboxamide]"
11,< 0.5,"C[C@H](CC1CCCCC1)C(=O)N1CC[C@@](O)(Cn2cc(C(=O)N(C)C)c(-c3ccccc3)cc2=O)C(C)(C)C1 [Example 121, 1-(((S)-1-((R)-3-Cyclohexyl-2-methylpropanoyl)-4-hydroxy-3,3-dimethylpiperidin-4-yl)methyl)-N,N-dimethyl-6-oxo-4-phenyl-1,6-dihydropyridine-3-carboxamide]"
12,< 0.5,"C[C@H](CC1CCCCC1)C(=O)N1CC[C@@](O)(Cn2cc(C(=O)N3CCCC3)c(-c3ccccc3)cc2=O)C(C)(C)C1 [Example 123, 1-(((S)-1-((R)-3-Cyclohexyl-2-methylpropanoyl)-4-hydroxy-3,3-dimethylpiperidin-4-yl)methyl)-4-phenyl-5-(pyrrolidine-1-carbonyl)pyridin-2(1H)-one]"
